From patent publication US11325921B2, “Optically active crosslinked cyclic secondary amine derivative” (Sumitomo Dainippon Pharma Co., Ltd., priority 2018, dated 2022)
Read-outs that look alike come from different tables or passages of the source.

Key:
[1] = target: Menin-MLL binding (His-Menin1-615 / MLL1-172-FLAG) (Homo sapiens (Human), UniProt O00255); assay: Test 1: inhibition of the Menin-MLL binding (HTRF); conditions: for Menin-MLL binding inhibition activity (in words): summary of the table
Procedure: Menin1-615 wherein 6× His tag and HA tag are inserted in the N-terminus, and myc tag is inserted in the C-terminus (hereinafter, referred to as His-Menin1-615), was diluted with an assay buffer (25 mmol/L HEPES, 150 mmol/L NaCl, 1 mmol/L dithiothreitol, 0.5% (w/v) Tween 80, 0.3% (w/v) BSA, 0.3% (w/v) skim milk) to adjust the final concentration Lo 30 nmol/L. The test compounds were also diluted with the assay buffer to adjust each concentration of the test compounds to 0.005 to 5 μmol/L. The prepared His-Menin1-615 and test compounds were added to a light-shielding 384-well low-volume plate (Corning, #4514) in 2 μL/well and 6 μL/well, respectively, and the plate was covered with a lid for light-shielding (Corning, r-3935), and incubated at room temperature for 3 hours. After the incubation, MLL1-172 wherein FLAG tag is inserted in the C-terminus (MLL1-172-FLAG), was separately diluted with the assay buffer to adjust the final concentration to 50 nmol/L. The prepared MLL1-172-FLAG was added to the above plate in 2 μL/well, and the plate was covered with a lid for light-shielding and incubated at room temperature for an hour.
Then, anti-6HIS-d2 antibody (cisbio, 61HISDLA) and anti-FLAGM2-K antibody (cisbio, 61FG2KLA) were diluted with an antibody dilution buffer (50 mmol/L Tris, 150 mmol/L NaCl, 800 mmol/L KF, pH 7.4) to adjust the final concentration to 1.4 μg/mL to prepare an antibody mixture. The prepared antibody mixture was added to the above plate in 10 μL/well, and the plate was covered with a lid and incubated at 4° C. for 17 to 24 hours. After the incubation, the signal was detected with RUBYstar (BMG LABTECH). The binding inhibition rate (%) at each concentration of the test compounds was calculated from the following formula, and the IC50 value was obtained, that corresponds to the concentration of the test compound at which the binding inhibition rate is 50%.

RS4; 11 cells = assay: Test 2: inhibition of cell proliferation, RS4; 11; format: cell-based; conditions: for cell proliferation inhibition activity (in words, good) / cell proliferation inhibitory activity (in words, potent): 11 and MOLM-13 cells, summary of the table; for cell proliferation inhibitory activity (in words, potent): 'especially'; for IC50: 11 cells, cultured 7 days, PrestoBlue
Procedure: (§1) RS4; 11 cells were obtained from American Type Culture Collection (ATCC). The cells were cultured at 37° C. in the presence of 5% CO2 in RPMI 1640 medium containing 10% fetal bovine serum and 1% penicillin/streptomycin. MOLM-13 cells were separately obtained from DSMZ. The cells were cultured at 37° C. in the presence of 5% CO2 in RPMI 1640 medium containing 20% fetal bovine serum and 1% penicillin/streptomycin.
(§2) The cells were plated to a 96-well plate in 2000 cells/well, each test compound was added thereto to adjust the final concentration of DMSO to 0.1% of DMSO, and the cells were cultured for 7 days. After the cultivation, the cell viability was calculated with PrestoBlue™ Cell Viability Reagent (Invitrogen, A13261). The IC50 value was calculated from a survival curve, that corresponds to the concentration of the test compound at which the cell proliferation inhibition rate is 50%.

MOLM-13 cells = assay: Test 2: inhibition of cell proliferation, MOLM-13; format: cell-based; conditions: cultured 7 days, PrestoBlue
Procedure: as §1, §2

[2] = system: MEIS1 mRNA in MV4; 11 cells; assay: Test 3: inhibition of mRNA transcription, MEIS1; format: cell-based; conditions: for mRNA transcription inhibition activity (in words): MEIS1 and HOXA9, MV4, 1 μM, summary of the table; for mrna remaining at 1 µM: Homo sapiens, read-out: mRNA at 1 μM (% control) MEIS1
Procedure: (§3) MV4; 11 cells were obtained from American Type Culture Collection (ATCC). The cells were cultured at 37° C. in the presence of 5% CO2 in RPMI 1640 medium containing 10% fetal bovine serum and 1% penicillin/streptomycin. To the MV4; 11 cells was added each test compound to adjust the final concentration to 1 μmol/L, and the cells were cultured at 37° C. in the presence of 5% CO2 for 20 to 24 hours. After the incubation, the total RNA was extracted from the cells with RNeasy™ Mini Kit (QIAGEN, 74106), and cDNA was synthesized with Superscript™ VILO™ cDNA Synthesis Kit (Invitrogen, #11754250). By using TaqMan™ Gene Expression Master Mix (Applied Biosystems, 4369016) and TaqMan™ probe (Applied Biosystems), the expression level of mRNA was quantified from the obtained cDNA with 7900HT (Applied biosystems). The mRNA expression level of each obtained gene was fitted with the expression level of mRNA of GAPDH.

[3] = system: HOXA9 mRNA in MV4; 11 cells; assay: Test 3: inhibition of mRNA transcription, HOXA9; format: cell-based; conditions: 20 to 24 hours, fitted with GAPDH; for mrna remaining at 1 µM: Homo sapiens, read-out: mRNA at 1 μM (% control) HOXA9
Procedure: as §3

[4] = Test 4: pharmacokinetic study; format: in vivo; conditions: male SD rat, oral, 10 mg/kg; for AUC(0-t): plasma, 24 hours; for compound-exposure in plasma (in words): summary of the table
Procedure: The test compound suspended in 0.5% methylcellulose was orally administered to 7-week-old male SD rat in a dose of 10 mg/kg. The blood sample was taken from jugular vein without anesthesia over time for 24 hours. The blood sample was centrifuged to obtain plasma. The plasma was pre-treated by methanol extraction method, and then analyzed with an LC-MS/MS to determine the concentration of the test compound. Based on the data from 0 hour after the administration until the time (t) when there was the final detection in the plasma, AUC was calculated by trapezoidal method.

[5] = MV4, 20 to 24 hours, fitted with GAPDH

Sequence of Menin-MLL binding (His-Menin1-615 / MLL1-172-FLAG) (O00255 other isoform, or with tags, fused parts or gaps): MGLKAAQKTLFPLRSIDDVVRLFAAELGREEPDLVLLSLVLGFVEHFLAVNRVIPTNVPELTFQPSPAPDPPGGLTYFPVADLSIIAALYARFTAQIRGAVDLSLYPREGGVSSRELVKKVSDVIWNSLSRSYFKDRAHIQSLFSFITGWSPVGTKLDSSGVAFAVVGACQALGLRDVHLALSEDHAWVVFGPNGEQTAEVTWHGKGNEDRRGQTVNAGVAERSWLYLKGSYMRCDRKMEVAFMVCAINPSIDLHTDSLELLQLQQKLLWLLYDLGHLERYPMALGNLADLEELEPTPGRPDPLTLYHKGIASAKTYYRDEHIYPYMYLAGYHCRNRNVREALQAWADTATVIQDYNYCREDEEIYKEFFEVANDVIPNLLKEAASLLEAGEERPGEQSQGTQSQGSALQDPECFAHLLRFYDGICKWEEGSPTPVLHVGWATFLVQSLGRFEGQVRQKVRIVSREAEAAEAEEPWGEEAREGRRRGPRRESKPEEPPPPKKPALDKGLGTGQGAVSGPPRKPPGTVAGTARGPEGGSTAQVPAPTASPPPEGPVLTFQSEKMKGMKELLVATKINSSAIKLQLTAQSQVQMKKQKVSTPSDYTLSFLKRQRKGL

| Compound | IC50 [1] | IC50 (RS4; 11 cells; Homo sapiens, 168 h) | IC50 (MOLM-13 cells; Homo sapiens, 168 h) | AUC(0-t) ([4]; read-out: AUC0-t) | compound-exposure in plasma (in words) [4] | Menin-MLL binding inhibition activity (in words) [1] | cell proliferation inhibition activity (in words, good) (RS4; 11 cells) | cell proliferation inhibitory activity (in words, potent) (RS4; 11 cells) | IC50 (RS4; 11 cells) | IC50 (MOLM-13 cells) | mRNA transcription inhibition activity (in words) [2] | mRNA at 1 μM (% control) MEIS1 [2, 5] | mRNA at 1 μM (% control) HOXA9 [3] | AUC(0-t) [4] | mrna remaining at 1 µM [2, 5] | mrna remaining at 1 µM [3] |
| --- | --- | --- | --- | --- | --- | --- | --- | --- | --- | --- | --- | --- | --- | --- | --- | --- |
| 4-{6-[(1S,3S,4S,5S)-5-fluoro-2-azabicyclo[2.2.2]octane-3-carbonyl]-2,6-diazaspiro[3.3]heptan-2-y}-2-(2,2,2-trifluoroethyl)thieno[2,3-b]pyridine-5-carbonitrile [Example 22] | 6.2 nM | – | – | – | – | potent | good | potent | 100 nM | 90 nM | showed the mRNA transcription inhibition activity | 18.1 % control | 37.0 % control | 244 ng·h/mL | – | – |
| O=C([C@H]1N[C@H]2CC[C@@H]1[C@@H](F)C2)N1CC2(C1)CN(c1c(C(F)(F)F)cnc3sc(CC(F)(F)F)cc13)C2 [Example 1, {(1S,3S,4S,5S)-5-Fluoro-2-azabicyclo[2.2.2]octan-3-yl}{6-[2-(2,2,2-trifluoroethyl)-5-(trifluoromethyl)thieno[2,3-b]pyridin-4-yl]-2,6-diazaspiro[3.3]heptan-2-yl}methanone] | 13.3 nM | 90 nM | 80 nM | 2410 ng·h/mL | good compound-exposure in plasma | potent | good | potent | – | – | showed the mRNA transcription inhibition activity | – | – | – | 18% | 43.3% |
| O=C([C@H]1N[C@@H]2CC[C@H]1C2)N1CC2(C1)CN(c1c(C(F)(F)F)cnc3sc(CC(F)(F)F)cc13)C2 [Example 2, [(1R,3S,4S)-2-azabicyclo[2.2.1]heptan-3-yl]{6-[2-(2,2,2-trifluoroethyl)-5-(trifluoromethyl)thieno[2,3-b]pyridin-4-yl]-2,6-diazaspiro[3.3]heptan-2-yl}methanone] | 17.8 nM | 200 nM | 260 nM | 1960 ng·h/mL | good compound-exposure in plasma | – | – | – | – | – | – | – | – | – | 32% | 34.3% |

Further lines, with some results ahead:

| IC50 [1] | IC50 (RS4; 11 cells; Homo sapiens, 168 h) | IC50 (MOLM-13 cells; Homo sapiens, 168 h) | AUC(0-t) ([4]; read-out: AUC0-t) | compound-exposure in plasma (in words) [4] | Compound | Menin-MLL binding inhibition activity (in words) [1] | cell proliferation inhibition activity (in words, good) (RS4; 11 cells) | cell proliferation inhibitory activity (in words, potent) (RS4; 11 cells) | IC50 (RS4; 11 cells) | IC50 (MOLM-13 cells) | mRNA transcription inhibition activity (in words) [2] | mRNA at 1 μM (% control) MEIS1 [2, 5] | mRNA at 1 μM (% control) HOXA9 [3] | AUC(0-t) [4] | mrna remaining at 1 µM [2, 5] | mrna remaining at 1 µM [3] |
| --- | --- | --- | --- | --- | --- | --- | --- | --- | --- | --- | --- | --- | --- | --- | --- | --- |
| 31.8 nM | 200 nM | 210 nM | 1210 ng·h/mL | good compound-exposure in plasma | O=C([C@H]1NC2CCC1CC2)N1CC2(C1)CN(c1c(C(F)(F)F)cnc3sc(CC(F)(F)F)cc13)C2 [Example 3, [(3S)-2-azabicyclo[2.2.2]octan-3-yl]{6-[2-(2,2,2-trifluoroethyl)-5-(trifluoromethyl)thieno[2,3-b]pyridin-4-yl]-2,6-diazaspiro[3.3]heptan-2-yl}methanone] | – | – | – | – | – | – | – | – | – | 18.7% | 32% |
| 31.7 nM | 170 nM | 280 nM | 3750 ng·h/mL | good compound-exposure in plasma | O=C([C@H]1N[C@H]2C[C@@H]1[C@@H](F)C2)N1CC2(C1)CN(c1c(C(F)(F)F)cnc3sc(CC(F)(F)F)cc13)C2 [Example 9, [(1S,3S,4S,5S)-5-fluoro-2-azabicyclo[2.2.1]heptan-3-yl]{6-[2-(2,2,2-trifluoroethyl)-5-(trifluoromethyl)thieno[2,3-b]pyridin-4-yl]-2,6-diazaspiro[3.3]heptan-2-yl}methanone] | – | – | – | – | – | – | – | – | – | 34.2% | 49.4% |
| 11 nM | 280 nM | 290 nM | 668 ng·h/mL | – | N#Cc1cnc2sc(CC(F)(F)F)cc2c1N1CC2(CN(C(=O)[C@H]3N[C@H]4CC[C@@H]3C(F)(F)C4)C2)C1 [Example 23, 4-{6-[(1S,3S,4S)-5,5-difluoro-2-azabicyclo[2.2.2]octane-3-carbonyl]-2,6-diazaspiro[3.3]heptan-2-yl}-2-(2,2,2-trifluoroethyl)thieno[2,3-b]pyridine-5-carbonitrile] | – | – | – | – | – | – | – | – | – | 45.4% | 49.3% |
